Assay results taken from patent publication US9096565B2, “Inhibitors of histone deacetylase” (MethylGene Inc., priority 2007, dated 2015).

target: one or more of HDAC-4, HDAC-5, HDAC-6, HDAC-7, HDAC-8, HDAC-9, HDAC-10 and HDAC-11; assay: Inhibition of histone deacetylase enzymatic activity (summary statement over isoforms); type: biochemical; settings: Table 3, selected examples; HDAC isoform not given
Method in brief: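 Activity was measured as deacetylation of the fluorogenic substrate Boc-Lys(trifluoroacetyl)-AMC over 20-30 min at 37 °C, after a 5 min room-temperature preincubation of enzyme with compound. Trypsin (1 mg/mL) with a reference HDAC inhibitor ended the reaction.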

Row | IC50 [nM] | SMILES
1 | < 1000 | O=C(NO)C(c1ccccc1)N1CCN(c2ccccn2)CC1 (stereo not shown) [Compound 5-73, N-hydroxy-2-phenyl-2-(4-(pyridin-2-yl)piperazin-1-yl)acetamide]
2 | < 1000 | O=C(NO)C(c1ccccc1)c1ccc(-c2ncccc2F)cc1 (stereo not shown) [Compound 5-74, 2-(4-(3-fluoropyridin-2-yl)phenyl)-N-hydroxy-2-phenylacetamide]
3 | < 1000 | O=C(NO)C(c1ccccc1)c1ccc(N2CCN(C(=O)OCc3ccccc3)CC2)cc1 (stereo not shown) [Compound 5-75, benzyl 4-(4-(2-(hydroxyamino)-2-oxo-1-phenylethyl)phenyl)piperazine-1-carboxylate]
4 | < 1000 | O=C(NO)C(c1ccccc1)c1ccc(N2CCN(Cc3ccc4c(c3)OCO4)CC2)cc1 (stereo not shown) [Compound 5-76, 2-(4-(4-(benzo[d][1,3]dioxol-5-ylmethyl)piperazin-1-yl)phenyl)-N-hydroxy-2-phenylacetamide]
5 | < 1000 | O=C(NO)C(c1ccccc1)c1ccc(N2CCN(C3CCCC3)CC2)cc1 (stereo not shown) [Compound 5-77, 2-(4-(4-cyclopentylpiperazin-1-yl)phenyl)-N-hydroxy-2-phenylacetamide]
6 | < 1000 | O=C(NO)C(c1ccccc1)c1ccc(N2C[C@@H]3C[C@H]2CO3)cc1 (stereo partly drawn) [Compound 5-78, 2-(4-((1S,4S)-2-oxa-5-azabicyclo[2.2.1]heptan-5-yl)phenyl)-N-hydroxy-2-phenylacetamide]
7 | < 1000 | Cn1cncc1C#Cc1ccc(C(C(=O)NO)c2ccccc2)cc1 (stereo not shown) [Compound 5-79, N-hydroxy-2-(4-((1-methyl-1H-imidazol-5-yl)ethynyl)phenyl)-2-phenylacetamide]
8 | < 1000 | Cc1cc(C)nc(N2CCN(C(C(=O)NO)c3ccccc3)CC2)n1 (stereo not shown) [Compound 5-80, 2-(4-(4,6-dimethylpyrimidin-2-yl)piperazin-1-yl)-N-hydroxy-2-phenylacetamide]
9 | < 1000 | O=C(NO)C(c1ccccc1)c1ccc(-n2ccc3ccccc32)cc1 (stereo not shown) [Compound 5-81, 2-(4-(1H-indol-1-yl)phenyl)-N-hydroxy-2-phenylacetamide]
10 | < 1000 | CCN(CC)c1ccc(C(C(=O)NO)c2ccc3c(c2)CCO3)cc1 (stereo not shown) [Compound 5-82, 2-(4-(diethylamino)phenyl)-2-(2,3-dihydrobenzofuran-5-yl)-N-hydroxyacetamide]
11 | < 1000 | CN1CCN(c2ccc(C(C(=O)NO)c3ccccc3)cc2)CC1 (stereo not shown) [Compound 5-83, N-hydroxy-2-(4-(4-methylpiperazin-1-yl)phenyl)-2-phenylacetamide]
12 | < 1000 | COc1ccc(N2CCN(c3ccc(C(C(=O)NO)c4ccccc4)cc3)CC2)cc1 (stereo not shown) [Compound 5-84, N-hydroxy-2-(4-(4-(4-methoxyphenyl)piperazin-1-yl)phenyl)-2-phenylacetamide]
13 | < 1000 | O=C(NO)C(c1ccccc1)c1ccc(N2CCN(C/C=C/c3ccccc3)CC2)cc1 (stereo not shown) [Compound 5-85, (E)-2-(4-(4-cinnamylpiperazin-1-yl)phenyl)-N-hydroxy-2-phenylacetamide]
14 | 1000 to 15000 | O=C(NO)C(c1ccccc1)N1CCN(S(=O)(=O)Cc2ccccc2)CC1 (stereo not shown) [Compound 5-87, 2-(4-(benzylsulfonyl)piperazin-1-yl)-N-hydroxy-2-phenylacetamide]
15 | < 1000 | O=C(NO)C(c1ccccc1)c1ccc(-n2ccnc2)cc1 (stereo not shown) [Compound 5-88, 2-(4-(1H-imidazol-1-yl)phenyl)-N-hydroxy-2-phenylacetamide]
16 | < 1000 | O=C(NO)C(c1ccc(F)cc1)c1cccc(-c2ccccc2)c1 (stereo not shown) [Compound 5-89, 2-(biphenyl-3-yl)-2-(4-fluorophenyl)-N-hydroxyacetamide]
17 | < 1000 | O=C(NO)C(c1ccc(F)cc1)c1ccc(N2CCOCC2)cc1 (stereo not shown) [Compound 5-90, 2-(4-fluorophenyl)-N-hydroxy-2-(4-morpholinophenyl)acetamide]
18 | < 1000 | O=C(NO)C(c1ccccc1)c1ccc(C#CCN2CCS(=O)(=O)CC2)cc1 (stereo not shown) [Compound 5-91]

Row | SMILES | IC50 [nM]
19 | O=C(NO)C(c1ccccc1)c1ccc(N2CCNCC2)cc1 (stereo not shown) [Compound 5-86, N-hydroxy-2-phenyl-2-(4-(piperazin-1-yl)phenyl)acetamide] | < 1000
